Measurements taken from US20250304623A1, “PEPTIDES FOR INTRACELLULAR DELIVERY” (UNIVERSIDADE DE SANTIAGO DE COMPOSTELA, priority 2022, published 2025).

Legend:
Hela cells = experiment: EGFP pDNA transfection, flow cytometry, HeLa; format: cell-based; details: myristoleyl aldehyde
Procedure: (§1) For cytometry-based assays, the delivery of pDNA encoding for the expression of eGFP gene (GFP) in HeLa and A549 cells was performed. Amphiphilic molecule stock solutions in DMSO were diluted with DMEM and freshly mixed with pDNA stock solutions in DMEM prior to transfection experiments, to afford several complexes at different amphiphile concentration (2.5-10 μM) while maintaining a constant final pDNA concentration of 2 ng/μL. The mixture was shaken for 30 min at room temperature before the addition to the cells. The cell medium was aspirated, and cells were washed twice with PBS. Finally, 50 μL of the complex's solution were added to the cells and incubated for 4 h. After the incubation, the medium was replaced by 100 μL of fresh DMEM supplemented with 10% FBS. 72 hours after transfection the DMEM was removed, and cells were cultured for 5 min with 100 μL of trypsin. Then, 100 μL of PBS (supplemented with 2% FBS and 1% EDTA 0.5M) were added. Finally, the GFP fluorescent measurement was performed in a flow cytometer and the percentage of GFP positive (i.e., transfected cells) were quantified. Amphiphile transfection efficiency was compared to control, non-treated cells and all experiments were done in triplicate.
7.3(Leu-His) peptide with D-amino acids was synthesized. This peptide would be more resistant to the degradation by proteases. The inventors studied the delivery of EGFP pDNA using amphiphiles comprising either enantiomer (either 7.3(Leu-His) peptide with D-amino acids or with L-amino acids) and myristoleyl aldehyde to compare their transfecting activity in HeLa cells. Number of EGFP expressing cells was measured by flow cytometry.
Experiments in cultured cells at different confluence levels were performed to check the effect of this parameter on the activity of amphiphile 7.3(Leu-His) M. As described above, transfection experiments are usually performed on cells seeded the day before at a cell concentration of 60,000 cell/mL (100 μL/well). In the current example, transfection experiments with EGFP pDNA are performed in HeLa cells two and four times more concentrated (120,000 and 240,000 cells/mL, respectively). […] However, for this experiment more volume of complex amphiphile/pDNA was needed as the cell concentration was increased (50, 100 and 200 μL of complexes were used for 60,000, 120,000 and 240,000 cells/mL, respectively).
Several structural modifications were performed on the peptide 7.3(Leu-His). The delivery of EGFP pDNA in HeLa cells using amphiphiles comprising these peptides and myristoleyl aldehyde was tested. The modifications consisted of the modification in the order of the amino acids, the replacement of 1 to 3 K* residues for O* residues and the addition of 1 or 2 R residues on the N-terminus. […]

A549 cells = experiment: EGFP pDNA transfection, flow cytometry, A549; format: cell-based; details: myristoleyl aldehyde, 5 μM
Procedure: FIG. 6 EGFP pDNA transfection efficacy with amphiphiles (myristoleyl aldehyde hydrophobic tails were used in all cases) comprising peptide 7.3(L-H) and other short peptides structurally-derived from 7.3(L-H), in A549, HeLa and HepG2 cell lines. 5 μM of amphiphile and 2 ng/μL pDNA per well were used in the transfection experiments. “LF”=Lipofectamine® 2000 commercial reagent.
as §1, with “72 hours after transfection the DMEM was removed, and cells were cultured for 5 min with 100 μL of trypsin. Then, 100 μL of PBS (supplemented with 2% FBS and 1% EDTA 0.5M) were added.” left out, “Amphiphile transfection efficiency was compared to control, non-treated cells and all experiments were done in triplicate.” left out

[1] = 5 μM, cell lines of FIG. 6 other than A549

| Substance | EGFP pDNA transfecting activity, D- versus L-amino acid peptide (Hela cells; HeLa, flow cytometry) | EGFP pDNA transfection efficiency compared with other amphiphiles (A549 cells) | EGFP pDNA transfection efficiency compared with amphiphile 7.3(Leu-His) M (Hela cells; [1]) | EGFP pDNA transfection efficiency as % of V1-7.3(Leu-His) M or 7.3(Leu-His) M (Hela cells; [1]) |
| --- | --- | --- | --- | --- |
| Ac-RK*HRK*K*H-NH2 [7.3(Leu-His) peptide with D-amino acids] | both peptides perform equally efficiently | – | – | – |
| Ac-RHK*K*K*HR-NH2 (Ac-RHKKKHR-NH2; not fully specified (residues 3, 4, 5); printed as Ac-RHK*K*K*HR-NH2; also: linker on K* not given here) [V1-7.3(Leu-His)] | – | about half | generally show the same transfection efficiency | – |
| Ac-RK*HHK*K*R-NH2 (Ac-RKHHKKR-NH2; not fully specified (residues 2, 5, 6); printed as Ac-RK*HHK*K*R-NH2; also: linker on K* not given here) [V2-7.3(Leu-His)] | – | enhanced efficiency matching V1-7.3(Leu-His) M transfection efficiency | – | about 50% |
